pKi: −log10 of the molar value. Where a name gives a salt, the structure may show the parent alone.
Tests used:
[1] = target: T1, PTP1B (Homo sapiens, UniProt P18031); test: Inhibition of truncated PTP1B, p-nitrophenyl phosphate substrate; type: biochemical; settings: truncated PTP1B (first 321 amino acids) expressed in E. coli; pNPP substrate; pH 5.5; 25° C., 60 minutes
T1 construct: a truncated form of PTP1B (corresponding to the first 321 amino acids); made in house; host or cells: E. coli
T1 sequence (P18031 1-321): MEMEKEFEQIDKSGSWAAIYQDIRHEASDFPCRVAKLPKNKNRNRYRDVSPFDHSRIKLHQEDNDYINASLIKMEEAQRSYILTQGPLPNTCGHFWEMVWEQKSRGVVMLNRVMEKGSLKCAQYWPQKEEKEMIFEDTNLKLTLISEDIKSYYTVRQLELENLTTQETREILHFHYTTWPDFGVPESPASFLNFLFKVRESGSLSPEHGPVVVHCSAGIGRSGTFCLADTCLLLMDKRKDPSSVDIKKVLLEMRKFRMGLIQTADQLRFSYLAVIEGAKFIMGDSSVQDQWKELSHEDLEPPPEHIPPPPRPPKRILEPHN
Experimental: The compounds are evaluated for biological activity with a truncated form of PTP1B (corresponding to the first 321 amino acids), which is expressed in E. coli and purified to apparent homogeneity using published procedures well-known to those skilled in the art. The enzyme reactions are carried out using standard conditions essentially as described by Burke et al. (Biochemistry 35; 15989-15996 (1996)). The assay conditions are as follows. Appropriate concentrations of the compounds of the invention are added to the reaction mixtures containing different concentrations of the substrate, p-nitrophenyl phosphate (range: 0.16 to 10 mM—final assay concentration). The buffer used is 100 mM sodium acetate pH 5.5, 50 mM sodium chloride, 0.1% (w/v) bovine serum albumin and 5 mM dithiothreitol (total volume […]). The reaction is started by addition of the enzyme and carried out in microtiter plates at 25° C. for 60 minutes. The reactions are stopped by addition of NaOH. The enzyme activity is determined by measurement of the absorbance at 405 nm with appropriate corrections for absorbance at 405 nm of the compounds and p-nitrophenyl phosphate. The data are analyzed using nonlinear regression fit to classical Michaelis Menten enzyme kinetic models. Inhibition is expressed as Ki values in μM.

| melting point [°C] | pKi [1] | SMILES |
| --- | --- | --- |
| > 250 |  | O=C(O)C(=O)Nc1c(C(=O)O)sc2ncccc12 (as salt: sodium) [Example 1, 3-(Oxalyl-amino)-thieno[2,3-b]pyridine-2-carboxylic acid, mono sodium salt] |
|  | 3.48 | O=C(O)C(=O)Nc1c(C(=O)O)sc2ncccc12 [Example 1, 3-(Oxalyl-amino)-thieno[2,3-b]pyridine-2-carboxylic acid, mono sodium salt] |

From patent US20020019412A1, “MODULATORS OF PROTEIN TYROSINE PHOSPHATASES (PTPASES)” (priority 1998, published 2002)
